Experimental findings from patent US9796733B2, “Imidazo-pyrazine derivatives useful as soluble guanylate cyclase activators” (Merck Sharp & Dohme Corp., priority 2014, dated 2017) are described below.

A word on the EC50: it is the concentration that produces a half-maximal response. Lower therefore signals a more potent agent.

The target of one assay is T1, sGC α1/β1 heterodimer (Homo sapiens, UniProt Q02108+Q02153).
T1 construct: expressed in transfected cells; host or cells: CHO-K1 (clone #7, CHO-K1/sGC)
T1 sequence (Q02108 1-690): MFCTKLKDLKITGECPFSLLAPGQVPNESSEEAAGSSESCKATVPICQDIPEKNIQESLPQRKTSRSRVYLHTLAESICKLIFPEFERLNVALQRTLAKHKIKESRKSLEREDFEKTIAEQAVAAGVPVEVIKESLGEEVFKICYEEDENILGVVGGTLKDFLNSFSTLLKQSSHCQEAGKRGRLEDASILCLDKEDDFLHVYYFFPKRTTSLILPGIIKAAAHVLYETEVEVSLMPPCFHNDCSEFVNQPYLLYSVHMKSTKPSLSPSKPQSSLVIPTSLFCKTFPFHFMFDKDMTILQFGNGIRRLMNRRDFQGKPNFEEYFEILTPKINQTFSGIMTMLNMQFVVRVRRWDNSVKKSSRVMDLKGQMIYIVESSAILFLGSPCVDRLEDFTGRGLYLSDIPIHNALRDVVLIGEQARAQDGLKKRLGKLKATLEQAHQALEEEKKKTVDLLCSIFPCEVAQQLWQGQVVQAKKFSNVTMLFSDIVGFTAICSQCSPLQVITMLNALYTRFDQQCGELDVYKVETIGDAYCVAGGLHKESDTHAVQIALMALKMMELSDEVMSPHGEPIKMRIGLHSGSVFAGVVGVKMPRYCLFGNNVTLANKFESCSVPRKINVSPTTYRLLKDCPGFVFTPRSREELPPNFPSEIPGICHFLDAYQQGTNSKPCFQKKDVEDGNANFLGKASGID
T1 sequence (Q02153 1-619): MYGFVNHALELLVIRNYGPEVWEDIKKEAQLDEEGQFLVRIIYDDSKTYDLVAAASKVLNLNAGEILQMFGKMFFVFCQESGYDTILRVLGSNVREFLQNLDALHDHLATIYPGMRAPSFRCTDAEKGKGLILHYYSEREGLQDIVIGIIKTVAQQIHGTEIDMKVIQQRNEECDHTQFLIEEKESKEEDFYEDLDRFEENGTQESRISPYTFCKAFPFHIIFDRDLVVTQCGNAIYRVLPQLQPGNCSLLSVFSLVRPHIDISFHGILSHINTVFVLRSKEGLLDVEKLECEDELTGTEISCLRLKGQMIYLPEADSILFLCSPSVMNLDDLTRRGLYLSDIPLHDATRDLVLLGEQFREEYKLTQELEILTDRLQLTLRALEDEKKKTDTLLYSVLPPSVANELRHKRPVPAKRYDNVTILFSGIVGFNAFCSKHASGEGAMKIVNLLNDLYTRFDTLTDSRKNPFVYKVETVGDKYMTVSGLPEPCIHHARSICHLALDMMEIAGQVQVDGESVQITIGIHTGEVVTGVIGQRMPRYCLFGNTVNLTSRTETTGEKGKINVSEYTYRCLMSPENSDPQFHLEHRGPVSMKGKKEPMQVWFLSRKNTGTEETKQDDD
In words: Cell-based sGC functional assay (CASA assay): cGMP generation in CHO-K1/sGC cells, HTRF detection. Particulars: for Emax: CHO-K1, percent activation relative to standard Compound A in CHO-K1/sGC cells, read-out: % Act.; for EC50: inflection point (IP) of cGMP generation in CHO-K1/sGC cells, 4P fit, activity expressed as percentage of Compound A. In outline: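 Stable CHO-K1/sGC cells in EBSS buffer with 5 mM MgCl2, 0.05% BSA and 0.5 mM IBMX were incubated with compound (2.5% DMSO final) ±1 μM DETA-NO for 1 hr at 37° C. cGMP was measured by HTRF. Activation is expressed as % of reference HDA Compound A maximum, with IP and max fold induction from a 4P fit.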
Background: In TR-FRET formats the signal depends on donor and acceptor labels being close together.

The subject of assay [1] is Spontaneously hypertensive rats (SHR). In words: Acute efficacy in spontaneously hypertensive rats (SHR): telemetry blood pressure lowering after a single oral dose. The assay is classed as in vivo, rat. The source says: Acute Efficacy in Spontaneously Hypertensive Rats (SHR)
Spontaneously hypertensive rats (SHR, male, Charles River) were implanted with DSI TA11PA-C40 telemetry device (Data Sciences, Inc., St. Paul, Minn.) under isoflurane or ketamine/metomidine anesthesia. The telemetry unit catheter was inserted into the descending aorta via the femoral artery and the telemetry device was implanted subcutaneously in the left flank area. Animals were allowed to recover from surgery for 14 days before the start of any studies. Blood pressure, heart rate, and activity signals from conscious, freely moving rats were recorded continuously for 30 seconds every 10 minutes. On the day prior to administration of compound, a single oral dose of vehicle (10% transcutol/20% Cremophor/70% water) was administered to all animals to establish baseline control data. The blood pressure lowering efficacy of compound (PO) or vehicle was evaluated following a single oral gavage. Data were collected as hourly averages, and changes in blood pressure were calculated by subtracting control baseline data on an hourly basis. Animals were maintained on normal diet with a 12 hour light-dark cycle.
Maximum peak decreases of systolic blood pressure (SBP) in SHR at a particular P.O. dose (mpk milligrams per kilogram) for the following representative compounds are provided. Category A=SBP in SHRs<20 mmHg; Category B=SBP in SHRs 20-40 mmHg; Category C=SBP in SHRs>40 mmHg

In the case of `CC1(c2ccc(OC(F)(F)F)cc2)C(=O)Nc2nc(-c3cn4ccnc4c(CCCC(F)(F)F)n3)nc(N)c21` (stereo not shown) [Example 207B, 4-amino-5-methyl-2-(8-(4,4,4-trifluorobutyl)imidazo[1,2-a]pyrazin-6-yl)-5-(4-(trifluoromethoxy)phenyl)-5H-pyrrolo[2,3-d]pyrimidin-6(7H)-one], on sGC α1/β1 heterodimer, the Emax was found to be 121% and the concentration for a half-maximal effect (EC50) stood at 44 nM. In assay [1] (P.O. 0.3 mpk), the “Maximum peak decrease of systolic blood pressure (SBP) in SHR, Cat.” value (“Maximum peak decrease” below) is recorded as “B (Category B=SBP in SHRs 20-40 mmHg)”.
With `Nc1nc(-c2cn3ccnc3c(CCC(F)(F)C(F)(F)F)n2)nc2c1C(c1ccc(F)cc1)(C1CCC1)C(=O)N2` (single isomer, unassigned) [Example 344B, 4-amino-5-cyclobutyl-5-(4-fluorophenyl)-2-(8-(3,3,4,4,4-pentafluorobutyl)imidazo[1,2-a]pyrazin-6-yl)-5H-pyrrolo[2,3-d]pyrimidin-6(7H)-one], at sGC α1/β1 heterodimer, the Emax was 163% and the EC50 worked out at 51 nM. Also, in assay [1] (P.O. 0.3 mpk), the “Maximum peak decrease” value is on record as “A (Category A=SBP in SHRs<20 mmHg)”.
On to `CCc1ccc(C2(C)C(=O)Nc3nc(-c4cn5ccnc5c(CCC(F)(F)C(F)(F)F)n4)nc(N)c32)cn1` (stereo not shown) [Example 243B, 4-amino-5-(6-ethylpyridin-3-yl)-5-methyl-2-(8-(3,3,4,4,4-pentafluorobutyl)imidazo [1,2-a]pyrazin-6-yl)-5H-pyrrolo[2,3-d]pyrimidin-6(7H)-one], for which, on sGC α1/β1 heterodimer, the Emax came out at 106% and the 50% effective concentration (EC50) came to 208 nM. The “Maximum peak decrease” value in assay [1] (P.O. 1.0 mpk) is recorded as “A (Category A=SBP in SHRs<20 mmHg)”.
The corresponding values for `COc1cn2cc(-c3nc(N)c4c(n3)NC(=O)C4(C)c3ccc(F)cn3)nc(CCC(F)(F)C(F)(F)F)c2n1` (stereo not shown) [Example 175B, 4-amino-5-(5-fluoropyridin-2-yl)-2-(2-methoxy-8-(3,3,4,4,4-pentafluorobutyl)imidazo [1,2-a]pyrazin-6-yl)-5-methyl-5H-pyrrolo[2,3-d]pyrimidin-6(7H)-one] are 88%, 501 nM and “A (Category A=SBP in SHRs<20 mmHg)”.
As for `CCC1(c2ccc(F)cn2)C(=O)Nc2nc(-c3cn4ccnc4c(CCC(F)(F)C(F)(F)F)n3)nc(N)c21` (stereo not shown) [Example 249A, 4-amino-5-ethyl-5-(5-fluoropyridin-2-yl)-2-(8-(3,3,4,4,4-pentafluorobutyl)imidazo [1,2-a]pyrazin-6-yl)-5H-pyrrolo[2,3-d]pyrimidin-6(7H)-one], at sGC α1/β1 heterodimer, the Emax is 96% and the concentration giving a half-maximal response (EC50) stood at 759 nM. In assay [1] (P.O. 3.0 mpk), the “Maximum peak decrease” value is given as “B (Category B=SBP in SHRs 20-40 mmHg)”.
With `CC(C)CCc1nc(-c2nc(N)c3c(n2)NC(=O)C3(C)c2ccc(F)cn2)cn2ccnc12` (stereo not shown) [Example 11B, 4-amino-5-(5-fluoropyridin-2-yl)-2-(8-isopentylimidazo[1,2-a]pyrazin-6-yl)-5-methyl-5H-pyrrolo[2,3-d]pyrimidin-6(7H)-one], at sGC α1/β1 heterodimer, the Emax was determined as 135% and the concentration giving a half-maximal response (EC50) is 46 nM. Further, the “Maximum peak decrease” value in assay [1] (P.O. 1.0 mpk) is on record as “B (Category B=SBP in SHRs 20-40 mmHg)”.
With `Nc1nc(-c2cn3ccnc3c(CCC(F)(F)F)n2)nc2c1C(c1ccc(F)cc1)(C1CC1)C(=O)N2` (stereo not shown) [Example 194B, 4-amino-5-cyclopropyl-5-(4-fluorophenyl)-2-(8-(3,3,3-trifluoropropyl)imidazo[1,2-a]pyrazin-6-yl)-5H-pyrrolo[2,3-d]pyrimidin-6(7H)-one], at sGC α1/β1 heterodimer, the Emax was 116% and a half-maximal effect (EC50) was put at 268 nM. Moreover, in assay [1] (P.O. 3.0 mpk), the “Maximum peak decrease” value is on record as “C (Category C=SBP in SHRs>40 mmHg)”.
Taken in the same sequence, the figures for `CC1(c2ccc(F)c(F)c2)C(=O)Nc2nc(-c3cn4ccnc4cn3)nc(N)c21` (stereo not shown) [Example 141B, 4-amino-5-(3,4-difluorophenyl)-2-(imidazo[1,2-a]pyrazin-6-yl)-5-methyl-5H-pyrrolo[2,3-d]pyrimidin-6(7H)-one] were 112%, 236 nM and “B (Category B=SBP in SHRs 20-40 mmHg)”.
Taken in the same sequence, the figures for `CC(C)c1ccc(C2(C)C(=O)Nc3nc(-c4cn5ccnc5c(CCC(F)(F)C(F)(F)F)n4)nc(N)c32)cn1` (stereo not shown) [Example 251B, 4-amino-5-(6-isopropylpyridin-3-yl)-5-methyl-2-(8-(3,3,4,4,4-pentafluorobutyl)imidazo [1,2-a]pyrazin-6-yl)-5H-pyrrolo[2,3-d]pyrimidin-6(7H)-one] were 85%, 100 nM and “B (Category B=SBP in SHRs 20-40 mmHg)”.
Consider `CCCc1nc(-c2nc(N)c3c(n2)NC(=O)C3(C)c2ccc(C(F)(F)F)cc2)cn2ccnc12` (stereo not shown) [Example 131B, 4-amino-5-methyl-2-(8-propylimidazo[1,2-a]pyrazin-6-yl)-5-(4-(trifluoromethyl)phenyl)-5H-pyrrolo[2,3-d]pyrimidin-6(7H)-one], for which, on sGC α1/β1 heterodimer, the Emax worked out at 88% and the EC50 amounted to 178 nM. Further, the “Maximum peak decrease” value in assay [1] (P.O. 1.0 mpk) is reported as “B (Category B=SBP in SHRs 20-40 mmHg)”.
`Nc1nc(-c2cn3ccnc3c(CCCC(F)(F)F)n2)nc2c1C(c1ccc(C(F)(F)F)cn1)(C1CC1)C(=O)N2` (stereo not shown) [Example 219A, 4-amino-5-cyclopropyl-2-(8-(4,4,4-trifluorobutyl)imidazo[1,2-a]pyrazin-6-yl)-5-(5-(trifluoromethyl)pyridin-2-yl)-5H-pyrrolo[2,3-d]pyrimidin-6(7H)-one]: on sGC α1/β1 heterodimer, the Emax came to 124% and the EC50 is 53 nM. The “Maximum peak decrease” value in assay [1] (P.O. 1.0 mpk) is “B (Category B=SBP in SHRs 20-40 mmHg)”.
For `CC1(c2ccccn2)C(=O)Nc2nc(-c3cn4ccnc4c(CCC(F)(F)C(F)(F)F)n3)nc(N)c21` (stereo not shown) [Example 226A, 4-amino-5-methyl-2-(8-(3,3,4,4,4-pentafluorobutyl)imidazo [1,2-a]pyrazin-6-yl)-5-(pyridin-2-yl)-5H-pyrrolo[2,3-d]pyrimidin-6(7H)-one], at sGC α1/β1 heterodimer, the Emax was 124% and the EC50 came to 287 nM.
On to `CC(C)n1cc(C2(C)C(=O)Nc3nc(-c4cn5ccnc5c(Cc5ccc(F)cc5)n4)nc(N)c32)nn1` (stereo not shown) [Example 63A, 4-Amino-2-(8-(4-fluorobenzyl)imidazo[1,2-a]pyrazin-6-yl)-5-(1-isopropyl-1H-1,2,3-triazol-4-yl)-5-methyl-5H-pyrrolo[2,3-d]pyrimidin-6(7H)-one], for which, at sGC α1/β1 heterodimer, the Emax stood at 99% and the EC50 is 109 nM.
